Assay results from patent US12459951B2, “Compounds that interact with RAS superfamily proteins for treatment of cancers, inflammatory diseases, rasopathies, and fibrotic disease” (SHY Therapeutics, LLC, priority 2022, dated 2025).
Like-named read-outs stand apart in the source and are kept apart here.

Key:
[1] = test system: Erk1/2 phosphorylation; test: Erk1/2 Phosphorylation Assay (western blot), Panc-1; format: cell-based, human; conditions: at 10 μM, * = activation
How it was run: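 Phospho-Erk1/2 (Thr202/Tyr204) was detected by western blot in lysates of Panc-1 cells (KRas G12D). These had 6 h, 37° C exposure to 10 μM compound or a dilution series for IC50, in 0.3% DMSO. Cells were either starved overnight in 0.5% FBS with a 15-min 1.5 ng/ml EGF pulse, or kept unstimulated in 10% FBS.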

[2] = test system: MiaPaca-2 (expressing KRAS G12C mutant); test: Proliferation Assay (Cell Viability Assay); format: cell-based; conditions: Homo sapiens, MIA PaCa-2
How it was run: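 After 2–4 days' exposure at 37 °C, 5% CO2 to a single 10 μM final concentration or a dilution series (IC50), percent proliferation inhibition was derived from CellTiter 96 Aqueous One viability readings. The medium contained 0.3% DMSO and 10% FBS. KRAS G12C MiaPaca-2 cells were plated at 2000–5000/well the day before.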

[3] = Proliferation assay, MiaPaca-2, read-out: MiaPaca-2 IC50 (nM) Pancreatic
[4] = read-out: Proliferation in MiaPaca-2: IC50

Cc1c(-c2ccn(C(C)C)n2)cn2nc(-c3nccn3C)nc(Nc3cc4n(n3)CCO4)c12 [Compound 91, N-(6-(1-Isopropyl-1H-pyrazol-3-yl)-5-methyl-2-(1-methyl-1H-imidazol-2-yl)pyrrolo[2,1-f][1,2,4]triazin-4-yl)-2,3-dihydropyrazolo[5,1-b]oxazol-6-amine]
% inh of Erk1/2 phosphorylation in Panc-1 [1]: D* (85-100% activation)
IC50 [2, 3]: 10 to 50 nM
IC50 [2, 4]: < 150 nM

COC[C@@H]1CC[C@@H]1CNc1nc(-c2nccn2C)nn2cc(-c3ccn(C(C)C)n3)c(C)c12 (racemic) [Compound 3, rac 6-(1-Isopropyl-1H-pyrazol-3-yl)-N-(((1S,2R)-2-(methoxymethyl)cyclobutyl)methyl)-5-methyl-2-(1-methyl-1H-imidazol-2-yl)pyrrolo[2,1-f][1,2,4]triazin-4-amine]
% inh of Erk1/2 phosphorylation in Panc-1 [1]: D (85-100% inhibition)
IC50 [2, 4]: > 1000 nM

COC1CCCN(c2nc(-c3nccn3C)nn3cc(-c4ccn(C(C)C)n4)c(-c4ccccc4)c23)C1 (racemic) [Compound 21, rac 6-(1-Isopropyl-1H-pyrazol-3-yl)-4-(3-methoxypiperidin-1-yl)-2-(1-methyl-1H-imidazol-2-yl)-5-phenylpyrrolo[2,1-f][1,2,4]triazine]
% inh of Erk1/2 phosphorylation in Panc-1 [1]: 0 (0% inhibition)
IC50 [2, 4]: > 1000 nM

COCCNc1nc(-c2nccn2C)nn2cc(-c3ccn(C(C)C)n3)c(C)c12 [Compound 5, 6-(1-Isopropyl-1H-pyrazol-3-yl)-N-(2-methoxyethyl)-5-methyl-2-(1-methyl-1H-imidazol-2-yl)pyrrolo[2,1-f][1,2,4]triazin-4-amine]
% inh of Erk1/2 phosphorylation in Panc-1 [1]: 0 (0% inhibition)
IC50 [2, 4]: > 1000 nM

COc1cccc(Nc2nc(-c3nccn3C)nn3cc(-c4ccn(C(C)C)n4)c(C)c23)n1 [Compound 7, 6-(1-Isopropyl-1H-pyrazol-3-yl)-N-(6-methoxypyridin-2-yl)-5-methyl-2-(1-methyl-1H-imidazol-2-yl)pyrrolo[2,1-f][1,2,4]triazin-4-amine]
% inh of Erk1/2 phosphorylation in Panc-1 [1]: 0 (0% inhibition)
IC50 [2, 4]: > 1000 nM

COc1ncncc1Nc1nc(-c2nccn2C)nn2cc(-c3ccn(C(C)C)n3)c(C)c12 [Compound 88, 6-(1-Isopropyl-1H-pyrazol-3-yl)-N-(4-methoxypyrimidin-5-yl)-5-methyl-2-(1-methyl-1H-imidazol-2-yl)pyrrolo[2,1-f][1,2,4]triazin-4-amine]
% inh of Erk1/2 phosphorylation in Panc-1 [1]: 0 (0% inhibition)
IC50 [2, 4]: > 1000 nM

COCC1CCN(c2nc(-c3nccn3C)nn3cc(-c4ccn(C(C)C)n4)c(C)c23)C1 (racemic) [Compound 2, rac 6-(1-Isopropyl-1H-pyrazol-3-yl)-4-(3-(methoxymethyl)pyrrolidin-1-yl)-5-methyl-2-(1-methyl-1H-imidazol-2-yl)pyrrolo[2,1-f][1,2,4]triazine]
% inh of Erk1/2 phosphorylation in Panc-1 [1]: B (26-49% inhibition)
IC50 [2, 4]: > 1000 nM

CCc1nc(Nc2nc(-c3nccn3C)nn3cc(-c4ccn(C(C)C)n4)c(C)c23)nn1C [Compound 76, N-(5-Ethyl-1-methyl-1H-1,2,4-triazol-3-yl)-6-(1-isopropyl-1H-pyrazol-3-yl)-5-methyl-2-(1-methyl-1H-imidazol-2-yl)pyrrolo[2,1-f][1,2,4]triazin-4-amine]
% inh of Erk1/2 phosphorylation in Panc-1 [1]: 0 (0% inhibition)
IC50 [2, 4]: < 150 nM

Cc1c(-c2ccn(C(C)C)n2)cn2nc(-c3nccn3C)nc(Nc3ccn(C4CC4)n3)c12 [Compound 84, N-(1-Cyclopropyl-1H-pyrazol-3-yl)-6-(1-isopropyl-1H-pyrazol-3-yl)-5-methyl-2-(1-methyl-1H-imidazol-2-yl)pyrrolo[2,1-f][1,2,4]triazin-4-amine]
% inh of Erk1/2 phosphorylation in Panc-1 [1]: D* (85-100% activation)
IC50 [2, 3]: 1 to 10 nM
IC50 [2, 4]: < 150 nM

CC(C)n1ccc(-c2cn3nc(-c4nccn4C)nc(O)c3c2-c2ccccc2)n1 [Compound 17, 6-(1-Isopropyl-1H-pyrazol-3-yl)-2-(1-methyl-1H-imidazol-2-yl)-5-phenylpyrrolo[2,1-f][1,2,4]triazin-4-ol]
% inh of Erk1/2 phosphorylation in Panc-1 [1]: A (1-25% inhibition)
IC50 [2, 4]: > 1000 nM

Cc1c(-c2ccn(C(C)C)n2)cn2nc(-c3nccn3C)nc(Nc3ncc(C4CC4)o3)c12 [Compound 90, 5-Cyclopropyl-N-(6-(1-isopropyl-1H-pyrazol-3-yl)-5-methyl-2-(1-methyl-1H-imidazol-2-yl)pyrrolo[2,1-f][1,2,4]triazin-4-yl)oxazol-2-amine]
% inh of Erk1/2 phosphorylation in Panc-1 [1]: D* (85-100% activation)
IC50 [2, 4]: > 1000 nM

COCc1csc(Nc2nc(-c3nccn3C)nn3cc(-c4ccn(C(C)C)n4)c(C)c23)n1 [Compound 79, N-(6-(1-Isopropyl-1H-pyrazol-3-yl)-5-methyl-2-(1-methyl-1H-imidazol-2-yl)pyrrolo[2,1-f][1,2,4]triazin-4-yl)-4-(methoxymethyl)thiazol-2-amine]
% inh of Erk1/2 phosphorylation in Panc-1 [1]: D* (85-100% activation)
IC50 [2, 4]: < 150 nM
